Source: ChEMBL document CHEMBL6096697, “Structure-Guided Discovery of Novel N4-(Substituted Thiazol-2-yl)-N2-(4-Substituted phenyl)pyrimidine-2,4-Diamines as Potent CDK2 and CDK9 Dual Inhibitors with High Oral Bioavailability” (J Med Chem, 2025)

What was measured:
[1] = target: Cyclin-dependent kinase 2/cyclin A (Homo sapiens) (UniProt P24941+P20248+P78396); test: Inhibition of CDK2/cyclin A (unknown origin) using […] at 1 uM incubated for 40 mins in presence of ATP by Kinase-Glo assay relative to control; assay type: protein-complex assay
[2] = Inhibition of CDK9/cyclin T (unknown origin) using […] incubated for 40 mins in presence of ATP by Kinase-Glo assay; design: species or system Homo sapiens
[3] = Inhibition of CDK1/cyclin B (unknown origin) using […] incubated for 40 mins in presence of ATP by Kinase-Glo assay; design: species or system Homo sapiens
[4] = Inhibition of CDK6/cyclin D (unknown origin) using […] incubated for 40 mins in presence of ATP by Kinase-Glo assay; design: species or system Homo sapiens
[5] = Selectivity index, ratio of IC50 for CDK1/cyclin B (unknown origin) using […] to IC50 for CDK2/cyclin A (unknown origin) using […]
MDA-MB-231 = test: Antiproliferative activity against human MDA-MB-231 cells assessed as cell growth inhibition incubated for 48 hrs by MTT assay; assay type: functional, cell-based; conditions: MDA-MB-231, 48 h
[6] = Antiproliferative activity against HEK293 cells assessed as cell growth inhibition incubated for 48 hrs by MTT assay; assay type: toxicity, cell-based; conditions: human
[7] = target: Cyclin-dependent kinase 2 (Homo sapiens) (UniProt P24941); test: Inhibition of CDK2 in human HCT-116 cells assessed as reduction in Rb phosphorylation at Ser807/811 incubated for 24 hr s by Western blot analysis; assay type: cell-based; conditions: dose <= 0.8 µM
[8] = target: Cyclin-dependent kinase 9 (Homo sapiens) (UniProt P50750); test: Inhibition of CDK9 in human HCT-116 cells assessed as reduction in Rpb1 phosphorylation at Ser2/5 incubated for 24 hr s by Western blot analysis; assay type: cell-based; conditions: dose <= 0.8 µM
Cyclin-dependent kinase 9 (Homo sapiens), sequence (P50750 whole entry): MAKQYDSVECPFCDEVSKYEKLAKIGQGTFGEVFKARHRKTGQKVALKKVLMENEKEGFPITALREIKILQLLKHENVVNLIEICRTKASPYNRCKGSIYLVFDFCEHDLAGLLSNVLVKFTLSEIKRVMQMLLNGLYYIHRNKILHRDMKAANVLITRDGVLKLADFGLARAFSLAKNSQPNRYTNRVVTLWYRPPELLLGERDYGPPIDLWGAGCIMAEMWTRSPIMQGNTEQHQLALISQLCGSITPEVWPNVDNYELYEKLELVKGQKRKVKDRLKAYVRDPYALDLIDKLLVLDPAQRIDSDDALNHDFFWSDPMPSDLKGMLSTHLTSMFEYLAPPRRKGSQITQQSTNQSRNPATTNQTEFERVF

HCT-116 [9] = test: Induction of cell cycle arrest in human HCT-116 cells assessed as accumulation at G1/G0 phase at 0.2 uM incubated for 24 hrs by PI staining based flow cytometry (reference value: 58.29 +/- 2.01 %); assay type: functional
HCT-116 [10] = test: Induction of cell cycle arrest in human HCT-116 cells assessed as accumulation at S phase at 0.2 uM incubated for 24 hrs by PI staining based flow cytometry (reference value: 20.82 +/- 1.24 %); assay type: functional
HCT-116 [11] = test: Induction of cell cycle arrest in human HCT-116 cells assessed as accumulation at G2/M phase at 0.2 uM incubated for 24 hrs by PI staining based flow cytometry (reference value: 20.6 +/- 3.38 %); assay type: functional
HCT-116 [12] = test: Induction of cell cycle arrest in human HCT-116 cells assessed as accumulation at G2/M phase at 0.4 uM incubated for 24 hrs by PI staining based flow cytometry (reference value: 20.6 +/- 3.38 %); assay type: functional
HeLa [13] = test: Induction of cell cycle arrest in human HeLa cells assessed as accumulation at G2/M phase at 1.8 uM incubated for 24 hrs by PI staining based flow cytometry (reference value: 24.6 +/- 1.11 %); assay type: functional
HeLa [14] = test: Induction of cell cycle arrest in human HeLa cells assessed as accumulation at S phase at 3.6 uM incubated for 24 hrs by PI staining based flow cytometry (reference value: 17.84 +/- 1.89 %); assay type: functional
HeLa [15] = test: Induction of cell cycle arrest in human HeLa cells assessed as accumulation at G2/M phase at 3.6 uM incubated for 24 hrs by PI staining based flow cytometry (reference value: 24.6 +/- 1.11 %); assay type: functional
HCT-116 [16] = test: Induction of cell cycle arrest at G2/M phase in human HCT-116 cells assessed as decrease in p-Cdc2 level at 0.4 uM by Western blot analysis; assay type: functional, cell-based; conditions: time <= 48.0 hrs
HCT-116 [17] = test: Induction of apoptosis in human HCT-116 cells assessed as necrotic cells at 0.4 uM incubated for 24 hrs by PI staining based flow cytometry (reference value: 18.9 %); assay type: functional
HCT-116 [18] = test: Induction of apoptosis in human HCT-116 cells assessed as viable cells at 0.8 uM incubated for 24 hrs by PI staining based flow cytometry (reference value: 79.4 %); assay type: functional; conditions: read-out: Activity
HCT-116 [19] = test: Induction of apoptosis in human HCT-116 cells assessed as early apoptotic cells at 0.8 uM incubated for 24 hrs by PI staining based flow cytometry (reference value: 0.19 %); assay type: functional
HCT-116 [20] = test: Induction of apoptosis in human HCT-116 cells assessed as necrotic cells at 0.8 uM incubated for 24 hrs by PI staining based flow cytometry (reference value: 18.9 %); assay type: functional
HeLa [21] = test: Induction of apoptosis in human HeLa cells assessed as necrotic cells at 0.9 uM incubated for 24 hrs by PI staining based flow cytometry (reference value: 25.5 %); assay type: functional
HeLa [22] = test: Induction of apoptosis in human HeLa cells assessed as viable cells at 1.8 uM incubated for 24 hrs by PI staining based flow cytometry (reference value: 68.9 %); assay type: functional; conditions: read-out: Activity
HeLa [23] = test: Induction of apoptosis in human HeLa cells assessed as early apoptotic cells at 1.8 uM incubated for 24 hrs by PI staining based flow cytometry (reference value: 0.8 %); assay type: functional
HeLa [24] = test: Induction of apoptosis in human HeLa cells assessed as viable cells at 3.6 uM incubated for 24 hrs by PI staining based flow cytometry (reference value: 68.9 %); assay type: functional; conditions: read-out: Activity
HeLa [25] = test: Induction of apoptosis in human HeLa cells assessed as necrotic cells at 3.6 uM incubated for 24 hrs by PI staining based flow cytometry (reference value: 25.5 %); assay type: functional
HCT-116 [26] = test: Induction of apoptosis in human HCT-116 cells assessed as total apoptotic cells at 0.8 uM incubated for 24 hrs by PI staining based flow cytometry (reference value: 1.30 %); assay type: functional
HeLa [27] = test: Induction of apoptosis in human HeLa cells assessed as total apoptotic cells at 3.6 uM incubated for 24 hrs by PI staining based flow cytometry (reference value: 4.65 %); assay type: functional
[28] = AUC (0 to infinity) in Sprague-Dawley rat at 2 mg/kg, iv measured for 36 hrs by MRM analysis; assay type: ADME, organism-based; conditions: in vivo
[29] = Clearance in Sprague-Dawley rat at 2 mg/kg, iv measured for 36 hrs by MRM analysis; assay type: ADME, organism-based; conditions: in vivo
[30] = Apparent volume of distribution in Sprague-Dawley rat at 2 mg/kg, iv measured for 36 hrs by MRM analysis; assay type: ADME, organism-based; conditions: in vivo, read-out: Vz
[31] = Cmax in Sprague-Dawley rat at 2 mg/kg, iv measured for 36 hrs by MRM analysis; assay type: ADME, organism-based; conditions: in vivo
[32] = MRT (0 to t) in Sprague-Dawley rat at 10 mg/kg, po measured for 36 hrs by MRM analysis; assay type: ADME, organism-based; conditions: in vivo
[33] = Cmax in Sprague-Dawley rat at 10 mg/kg, po measured for 36 hrs by MRM analysis; assay type: ADME, organism-based; conditions: in vivo
[34] = Oral bioavailability in Sprague-Dawley rat at 10 mg/kg measured for 36 hrs by MRM analysis; assay type: ADME, organism-based; conditions: in vivo
[35] = Toxicity in Balb/c-nu nude mouse xenografted with human HCT-116 cells assessed as body weight loss at 35 to 70 mg/kg/day, po treated for 30 days; assay type: organism-based; conditions: in vivo, 720 h, dose 35-70 mg/kg/day, time 30 day

Q: What does the source list for Cc1cnc(Nc2ccc(S(N)(=O)=O)cc2)nc1Nc1nccs1?
A: inhibition [1]: 99.5%; IC50 [2]: 9 nM; IC50 [3]: 53 nM; IC50 [4]: 3250 nM; Ratio IC50 [5]: 13; IC50 (MDA-MB-231): 928 nM; IC50 at 48 h [6]: 90100 nM; inhibition [7]: Dose-dependent-effect; inhibition [8]: Dose-dependent-effect; Activity (HCT-116 [9]): 51.83%; Activity (HCT-116 [10]): 22.83%; Activity (HCT-116 [11]): 24.4%; Activity (HCT-116 [12]): 33.27%; Activity (HeLa [13]): 30.58%; Activity (HeLa [14]): 17.55%; Activity (HeLa [15]): 44.19%; Activity (HCT-116 [16]): Time-dependent-effect; Activity (HCT-116 [17]): 4.8%; viability at 0.8 µM (HCT-116 [18]): 52.8%; Activity (HCT-116 [19]): 15.5%; Activity (HCT-116 [20]): 4%; Activity (HeLa [21]): 0.81%; viability at 1.8 µM (HeLa [22]): 11.3%; Activity (HeLa [23]): 62.6%; viability at 3.6 µM (HeLa [24]): 11.7%; Activity (HeLa [25]): 0.72%; Activity (HCT-116 [26]): 43.2%; Activity (HeLa [27]): 88.3%; AUC(0-inf) [28]: 33.7 ng·h/mL; CL [29]: 1130 mL/min/kg; Vd [30]: 275 L/kg; Cmax [31]: 29.1 ng/mL; MRT last at 36 h [32]: 6.5 h; Cmax [33]: 21.1 ng/mL; bioavailability [34]: 86.7%; Activity [35]: Non-toxic
